Measurements reported in ChEMBL document CHEMBL1142620, “Anthraquinones and betaenone derivatives from the sponge-associated fungus Microsphaeropsis species: novel inhibitors of protein kinases” (J Nat Prod, 2000).
pIC50: −log10 of the molar value.

Key:
[1] = biological target: T1, Protein kinase C epsilon type (Mus musculus, UniProt P16054); assay: Inhibition of mouse recombinant PKCepsilon expressed in Sf9 insect cells
T1 sequence (P16054 whole entry): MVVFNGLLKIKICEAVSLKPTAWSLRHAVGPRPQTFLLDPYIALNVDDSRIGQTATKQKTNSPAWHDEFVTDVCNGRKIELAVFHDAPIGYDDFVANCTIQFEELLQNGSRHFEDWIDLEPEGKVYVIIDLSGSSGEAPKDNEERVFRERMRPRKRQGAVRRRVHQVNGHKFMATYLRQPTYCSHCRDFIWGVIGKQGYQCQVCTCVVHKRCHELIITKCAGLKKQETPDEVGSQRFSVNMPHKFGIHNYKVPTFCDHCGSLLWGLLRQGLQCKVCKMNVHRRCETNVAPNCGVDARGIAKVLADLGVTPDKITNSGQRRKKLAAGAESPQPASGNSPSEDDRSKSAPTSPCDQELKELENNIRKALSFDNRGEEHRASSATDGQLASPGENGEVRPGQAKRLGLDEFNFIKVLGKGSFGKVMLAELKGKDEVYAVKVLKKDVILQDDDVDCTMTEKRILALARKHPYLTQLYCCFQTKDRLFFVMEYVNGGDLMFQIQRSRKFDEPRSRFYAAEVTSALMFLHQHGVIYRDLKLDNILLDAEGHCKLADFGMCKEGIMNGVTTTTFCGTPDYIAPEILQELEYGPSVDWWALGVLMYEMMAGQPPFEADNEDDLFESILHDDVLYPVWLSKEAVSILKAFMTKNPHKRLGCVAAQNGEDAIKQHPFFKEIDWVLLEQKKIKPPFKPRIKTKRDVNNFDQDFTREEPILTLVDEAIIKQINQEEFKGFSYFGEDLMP

[2] = biological target: Epidermal growth factor receptor (Homo sapiens, UniProt P00533); assay: Inhibition of human recombinant EGFR kinase expressed in Sf9 insect cells
[3] = biological target: Cyclin-dependent kinase 4/cyclin D1 (Homo sapiens, UniProt P11802); assay: Inhibition of human recombinant CDK4/cyclin D1 kinase expressed in Sf9 insect cells
Chain of Cyclin-dependent kinase 4/cyclin D1 (P11802 whole entry): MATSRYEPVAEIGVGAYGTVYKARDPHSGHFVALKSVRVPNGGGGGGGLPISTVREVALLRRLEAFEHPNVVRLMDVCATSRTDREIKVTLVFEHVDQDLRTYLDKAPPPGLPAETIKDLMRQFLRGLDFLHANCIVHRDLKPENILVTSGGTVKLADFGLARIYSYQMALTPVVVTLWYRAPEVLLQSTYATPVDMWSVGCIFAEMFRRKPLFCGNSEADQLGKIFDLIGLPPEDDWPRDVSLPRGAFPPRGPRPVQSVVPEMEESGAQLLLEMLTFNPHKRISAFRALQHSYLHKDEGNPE
Chain of Cyclin-dependent kinase 4/cyclin D1 (P24385 whole entry, further chain): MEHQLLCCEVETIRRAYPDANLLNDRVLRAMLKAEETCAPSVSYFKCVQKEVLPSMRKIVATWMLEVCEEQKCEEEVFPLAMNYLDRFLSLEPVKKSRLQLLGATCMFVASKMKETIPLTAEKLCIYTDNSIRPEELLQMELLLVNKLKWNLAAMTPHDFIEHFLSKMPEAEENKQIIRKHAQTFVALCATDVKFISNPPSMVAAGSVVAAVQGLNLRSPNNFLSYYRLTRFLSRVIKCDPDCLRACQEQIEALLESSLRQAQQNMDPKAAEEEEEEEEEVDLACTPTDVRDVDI

Chain of Epidermal growth factor receptor (P00533 whole entry): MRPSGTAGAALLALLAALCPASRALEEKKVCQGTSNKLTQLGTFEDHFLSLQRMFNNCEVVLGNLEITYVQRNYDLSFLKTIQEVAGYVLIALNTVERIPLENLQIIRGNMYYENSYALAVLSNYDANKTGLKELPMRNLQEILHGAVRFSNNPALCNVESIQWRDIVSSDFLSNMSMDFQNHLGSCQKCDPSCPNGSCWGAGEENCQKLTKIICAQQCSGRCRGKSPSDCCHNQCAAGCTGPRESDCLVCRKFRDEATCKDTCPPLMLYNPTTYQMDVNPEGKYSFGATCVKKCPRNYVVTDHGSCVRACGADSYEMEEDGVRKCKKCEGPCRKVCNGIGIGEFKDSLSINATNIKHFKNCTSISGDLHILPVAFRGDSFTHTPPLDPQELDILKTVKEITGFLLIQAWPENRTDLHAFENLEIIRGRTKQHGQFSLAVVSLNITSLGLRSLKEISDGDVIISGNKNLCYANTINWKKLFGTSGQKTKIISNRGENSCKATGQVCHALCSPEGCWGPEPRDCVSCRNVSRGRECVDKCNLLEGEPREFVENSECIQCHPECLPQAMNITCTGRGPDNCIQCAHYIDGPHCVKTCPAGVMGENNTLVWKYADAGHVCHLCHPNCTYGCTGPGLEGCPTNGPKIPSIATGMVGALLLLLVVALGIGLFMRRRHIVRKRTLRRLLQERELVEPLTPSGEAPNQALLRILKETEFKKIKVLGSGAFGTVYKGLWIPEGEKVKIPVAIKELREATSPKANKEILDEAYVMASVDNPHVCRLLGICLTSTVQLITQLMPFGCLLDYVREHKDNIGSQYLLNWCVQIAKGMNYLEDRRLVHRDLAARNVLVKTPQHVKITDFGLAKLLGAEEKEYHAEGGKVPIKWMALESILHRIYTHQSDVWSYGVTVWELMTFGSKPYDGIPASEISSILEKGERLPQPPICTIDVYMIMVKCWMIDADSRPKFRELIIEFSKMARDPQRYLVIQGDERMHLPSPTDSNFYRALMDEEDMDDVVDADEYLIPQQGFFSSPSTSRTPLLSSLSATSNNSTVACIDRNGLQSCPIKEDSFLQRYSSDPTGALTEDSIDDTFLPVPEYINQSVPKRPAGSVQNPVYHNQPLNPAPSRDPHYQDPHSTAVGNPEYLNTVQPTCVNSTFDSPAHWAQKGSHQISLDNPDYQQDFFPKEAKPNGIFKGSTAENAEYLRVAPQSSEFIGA

Row | Structure (SMILES) | pIC50 [1] | pIC50 [2] | pIC50 [3]
1 | CCC(C)[C@@H]1[C@@](C)(C(=O)/C=C/N(c2ccccc2)c2ccc3ccccc3c2)[C@H]2[C@H](C)C[C@@](C)(O)C[C@]2(O)C(=O)[C@@]1(C)O (stereo not given in full) | < 4.00 | < 4.00 | < 4.00
2 | CO[C@H](C)c1c(O)cc2c(c1O)C(=O)c1c(cc(O)c(O)c1O)C2=O | 4.27 | 4.39 | 4.43
3 | CCC(C)[C@@H]1[C@@](C)(C(=O)/C=C/OC)[C@H]2[C@H](C)C[C@@](C)(O)C[C@]2(O)C(=O)[C@@]1(C)O (stereo not given in full) | 4.44 | 4.98 | 4.94

Results, then the compound that gave them:

Row | pIC50 [1] | pIC50 [2] | pIC50 [3] | Structure (SMILES)
4 | 4.73 | 4.43 | 4.36 | C[C@@H](O)c1c(O)cc2c(c1O)C(=O)c1c(O)cc(O)cc1C2=O
5 | 4.57 | 4.56 | 4.65 | CO[C@H](C)c1c(O)cc2c(c1O)C(=O)c1c(O)cc(O)cc1C2=O
